From US11629139B2 (priority 2017, dated 2023)
≈ marks a conversion by molar mass, not a printed value. Like-named read-outs stand apart in the source and are kept apart here.

Columns and labels:
[1] = human, microsomes
[2] = plasma
[3] = pH 7.4
[4] = mouse, in vivo
[5] = system: vesicular stomatitis virus particles (VSV) pseudotyped with EboV Zaire GP; conditions: cited from earlier work
VSV G = conditions: cited from earlier work
[6] = system: Lassa fever virus (LFV) GP; conditions: cited from earlier work
[7] = system: vesicular stomatitis virus particles (VSV) pseudotyped with EboV Zaire GP; assay: microbe, parasite or virus in culture; type: cell-based
in vivo = conditions: mouse, po
in vitro [8] = conditions: mouse, microsomes
physchem = conditions: pH 7.4, aqueous buffer, kinetic from dmso stock
[9] = not given; remark: listed apart in the source
EBOV G-A82 = assay: microbe, parasite or virus in culture; type: cell-based, Ebola virus; conditions: Zaire ebolavirus, HeLa, read-out: EBOV G-A82 (Hela) EC50
EBOV Kikwit = assay: microbe, parasite or virus in culture; type: cell-based, Ebola virus; conditions: Zaire ebolavirus, HeLa, read-out: EBOV Kikwit(Hela) EC50
EBOV Makona = assay: microbe, parasite or virus in culture; type: cell-based, Ebola virus; conditions: Zaire ebolavirus, HeLa, read-out: EBOV Makona (Hela) EC50
Ebola virus (Mayinga) = assay: microbe, parasite or virus in culture; type: cell-based; conditions: Zaire ebolavirus, HeLa, read-out: EBOV Maiynga) (Hela) EC50
in vitro [10] = conditions: mouse, plasma

[2H]C([2H])(c1cc(Cl)ccc1N)N1CCN(C(=O)CNC(=O)C2CC23CCC(F)(F)CC3)CC1 (single isomer, unassigned; (-)) [(−)-1413]
Increase of stability in mouse liver microsomes by ritonavir: 10- to 30 fold | MLM T½ (mouse, microsomes): 3 min | MLM, T½ (min) (ritonavir 3 μM) (mouse, microsomes): 91 min | HLM T½ [1]: 0.267 h | Mouse PPB (% bound) [2]: 87.9% | Kinetic solubility [3]: 78 µM | C@12 hr [4]: 2.0 µM | Cl_obs [4]: 15.5 mL/min/kg | AUClast ([4]; po, 50 mg/kg): 120.9 µM·h | T1/2 ([4]; po, 50 mg/kg): 3.2 h | Tmax ([4]; po, 50 mg/kg): 1.7 h

[2H]C([2H])(c1cc(Cl)ccc1NCc1ccc(S(C)(=O)=O)cc1)N1CCN(C(=O)CNC(=O)C2CC23CCC(F)(F)CC3)CC1 (single isomer, unassigned; (-)) [(−)-1503]
MLM T½ (mouse, microsomes): 2 min | MLM, T½ (min) (ritonavir 3 μM) (mouse, microsomes): 87 min | HLM T½ [1]: 0.017 h | Mouse PPB (% bound) [2]: 99.8% | Kinetic solubility [3]: 4 µM | C@12 hr [4]: 5.7 µM | Cl_obs [4]: 12.5 mL/min/kg | Plasma concentration after 12 hours relative to in vitro IC50 against rVSV EBOV infection in 50% human serum [4]: 50 fold | AUClast ([4]; po, 50 mg/kg): 107.5 µM·h | T1/2 ([4]; po, 50 mg/kg): 1.7 h | Tmax ([4]; po, 50 mg/kg): 7.3 h

O=C(CC12CC3CC(CC(C3)C1)C2)NCC(=O)N1CCN(Cc2ccccc2)CC1 [Compound 3.0]
Infection of Vero cells by VSV pseudotyped with EboV Zaire GP [5]: inhibits infection | Infection of Vero cells by VSV particles with VSV G (VSV G): not | Infection of Vero cells by VSV pseudotyped with Lassa fever virus (LFV) GP [6]: not

COC(=O)c1ccc(COc2ccccc2CN2CCN(C(=O)CNC(=O)CC34CC5CC(CC(C5)C3)C4)CC2)cc1 [Compound 3.47, reference compound]
Potency against EboV GP-dependent infection [5]: increased potency | Concentration required to reduce cell viability by 50% (cell viability): exceeded 10 μM

[2H]C([2H])(c1cc(Cl)ccc1N)N1CCN(C(=O)CNC(=O)CC2CCC(F)(F)CC2)CC1 [Compound 1412, N-(2-(4-((2-amino-5-chlorophenyl)methyl-d2)piperazin-1-yl)-2-oxoethyl)-2-(4,4-difluorocyclohexyl)acetamide]
IC50 [7]: 68 nM | IC50 ([7]; Vesicular stomatitis virus): 130 nM | Effect of CYP3A4 inhibition on T1/2 (FIG. 9) (mouse, microsomes): improves | T1/2 (min) (mouse, microsomes, pH 7.4): 1.4/144 min | Increase of stability in mouse liver microsomes by ritonavir (pH 7.4): 10- to 30 fold | Kinetic solubility [3]: 93 µM | Sol [3]: >100 mM | C@12 hr [4]: 1.7 µM | Cl_obs [4]: 12.3 mL/min/kg | Decrease of the clearance by co-administration of ritonavir ([4]; po): ~4 fold | Increase of the AUC by co-administration of ritonavir ([4]; po): ~4 fold | C@12 hr ([4]; po, 25 mg/kg): 0.2 µM | Cl_obs ([4]; po, 25 mg/kg): 49.0 mL/min/kg | Cmax ([4]; po, 25 mg/kg): 7.2 µM | T1/2 ([4]; po, 25 mg/kg): 2.3 h | Cmax (in vivo; 25 mg/kg): 12 µM | half-life (in vitro [8]; pH 7.4, Microsome T1/2): 0.145 to 0.217 h | half-life (in vitro [8]; pH 7.4, T1/2(min)): 0.217 h | half-life (in vitro [8]; pH 7.4, T1/2 + ritonavir (min)): 2.4 h | solubility kinetic (physchem): > 100 µM

CS(=O)(=O)c1ccc(COc2ccc(Cl)cc2CN2CCN(C(=O)CNC(=O)CC3CCC(F)(F)CC3)CC2)cc1 [Compound 1458]
IC50 ([7]; Vesicular stomatitis virus): 9 nM | MLM, T½ (min) (ritonavir 3 μM) (mouse, microsomes, pH 7.4): >120 min | Mouse plasma stability (% at 4 hours) [9]: 30%

CS(=O)(=O)c1ccc(COc2ccc(Cl)cc2CN2CCN(C(=O)CNC(=O)C3CC34CCC(F)(F)CC4)CC2)cc1 (stereo not shown) [Compound 1476]
EC50 (EBOV G-A82): < 80 nM | EC50 (EBOV Kikwit): 210 nM | EC50 (EBOV Makona): 140 nM | EC50 (Ebola virus (Mayinga)): 420 nM | m-μsome T1/2 (with 3 μM of Ritonavir) (mouse, microsomes, pH 7.4): 2.83 h | C@12 hr [4]: 14 µM | AUC (in vivo): 314 µM·h | Cmax (in vivo): 23 µM | half-life (in vivo): 6.1 h | fraction unbound (in vitro [10]; m-plasma protein binding): 0.013

CS(=O)(=O)c1ccc(CNc2ccc(Cl)cc2CN2CCN(C(=O)CNC(=O)CC3CCC(F)(F)CC3)CC2)cc1 [Compound 1477]
EC50 (EBOV Kikwit): 12 nM | EC50 (EBOV Makona): 52 nM | EC50 (Ebola virus (Mayinga)): 33 nM | m-μsome T1/2 (with 3 μM of Ritonavir) (mouse, microsomes, pH 7.4): 1.5 h | Concentration required to reduce cell viability by 50% (cell viability): exceeded 10 μM | fraction unbound (in vitro [10]; m-plasma protein binding): 0.001

CS(=O)(=O)c1ccc(CNc2ccc(Cl)cc2CN2CCN(C(=O)CNC(=O)C3CC34CCC(F)(F)CC4)CC2)cc1 (stereo not shown) [Compound 1478]
EC50 (EBOV Kikwit): 9 nM | EC50 (EBOV Makona): 17 nM | EC50 (Ebola virus (Mayinga)): 35 nM | m-μsome T1/2 (with 3 μM of Ritonavir) (mouse, microsomes, pH 7.4): 2.13 h | fraction unbound (in vitro [10]; m-plasma protein binding): 0.001

O=C(CC12CC3CC(CC(C3)C1)C2)NCC(=O)N1CCN(Cc2ccccc2OCc2ccc(-c3ncco3)cc2)CC1 [Compound 1803, 2-((3r,5r,7r)-Adamantan-1-yl)-N-(2-(4-(2-((4-(oxazol-2-yl)benzyl)oxy)benzyl)piperazin-1-yl)-2-oxoethyl)acetamide]
IC50 ([7]; Vesicular stomatitis virus): 270 nM | Mouse plasma stability (% at 4 hours) [9]: 37% | half-life (in vitro [8]; pH 7.4, MLM T½ (min)): 0.0167 h | fraction unbound (in vitro [10]; Mouse PPB (% bound)): 0.003 | solubility kinetic (physchem): 5 µM (≈ 2.91 µg/mL)
